Columns and labels:
Type in all cases: cell-based
[1] = biological target: T1, LasR transcriptional activator (Pseudomonas aeruginosa, UniProt P25084); assay: P. putida F117 pKRC12 lasB-GFP reporter assay (secondary screens); settings: compounds 10 μM, relative fluorescence (fluorescence divided by absorbance at 600 nm) as percent of AHL induced control; for % Activity of AHL Standard, 3 oxo C10HSL: 3oxoC10HSL 100 nM; for % Activity of AHL Standard, 3 oxo C12HSL: 3oxoC12HSL 50 nM
T1 construct: expressed in transfected cells; host or cells: Pseudomonas putida F117 carrying plasmid pKRC12 (lasR, PlasB-gfp)
Description: Additional screens were performed similar to screen described in the initial screen, except assays were performed in 96-well microtiter plates at a total volume of 100 μl. The reporter strain P. putida F117 pKRC12 was grown overnight at 28° C. in LB media, diluted with LB media to achieve an optical density of 0.05 at 600 nm (OD600), and 96 μl of cells were aliquoted to 96-well plates. Compounds were added at a final concentration of 100 nm or as otherwise indicated in each experiment and the bacterial cells were incubated with the compounds for approximately 30 minutes prior to the addition of 3oxoC10HSL or 3oxoC12HSL at a final concentration of 100 nM and 50 nM respectively or as indicated for each experiment. Fluorescence was measured at regular intervals after 3 hours using the Wallac Victor2 plate reader with an excitation wavelength of 485 nm and emission detection at 515 nm. Representative results are presented in FIGS. 6A and B and present the percentage of GFP expression activity as a function of expression of the AHL (3oxoC10 HSL) control. The numbers on the X axis refer to the Chembridge library reference number. Effects on growth of the antagonists were determined by measuring the optical density at 600 nm of growing bacterial cultures P. putida F 117 pKRC 12. […] (Reference for P. putida F117 pKRC12: Steidle, A., K. Sigl, R. Schuhegger, A. Ihring, M. Schmid, S. Gantner, M. Stoffels, K. Riedel, M. Givskov, A. Hartmann, C. Langebartels, and L. Eberl. 2001. Visualization of N-acylhomoserine lactone-mediated cell-cell communication between bacteria colonizing the tomato rhizosphere. Appl Environ Microbiol 67:5761-70). […]
This example presents representative results of experiments designed to test the activity of putative antagonists when challenged with different concentrations of synthetic AHLs, particularly 3oxoC12HSL. Assays were conducted with P. putida F117 pKRC12 reporter strain as described in the methods for secondary screens.
Following the initial screens to identify strong antagonists of the LasR transcriptional activator, further investigation of additional compounds in the Chembridge library was carried out. In particular, the experiments described in Example 1 identified three compounds that shared a thiocarbamate structure, as also shown in FIG. 16. To further investigate structure-activity relationships, the inventors examined the antagonist activity of 19 additional compounds with related thiocarbamate structures, using the procedures described in Example 1. The results are presented in Table 4, expressed as the percent activity of the AHL induced control. The % activity represents the relative fluorescence, which is the fluorescence observed in each assay divided by bacterial cell density as measured by absorbance at 600 nm. Compounds were assayed at a concentration of 10 μM. Assays were conducted with P. putida F117 pKRC12 reporter strain as described in the methods for secondary screens. The 3oxoC10HSL and 3oxoC12HSL were assayed at concentrations of 100 nM and 50 nM, respectively.

CviR = biological target: T2, CviR (Chromobacterium violaceum, UniProt D3W065); assay: Chromobacterium violaceum CV026 violacein plate assay; settings: 1 μl of 0.1 mg/ml spotted
T2 construct: endogenous in cells; host or cells: Chromobacterium violaceum CV026
Description: (§1) Additional screens were performed as described above, except fluorescence was measured using the Wallac Victor2 plate reader with an excitation wavelength of 485 nm and emission detection at 515 nm. E. coli reporter induction assays were performed as described for P. putida. Chromobacterium violaceum CV026 and Agrobacterium tumefaciens KYC55 induction assays were performed by applying compounds to a lawn of bacteria on agar plates. C. violaceum CV026 inhibition assays were performed by applying compounds to a lawn of bacteria on agar plates containing synthetic N-3-oxohexanoyl-L-homoserine lactone.
Chromobacterium violaceum CV026 is a mutant that is unable to produce AHLs. Exogenous AHLs must be added to induce the LuxR-type transcriptional regulator which is designated CviR in this strain. Activation of CviR is indicated by the production of violacein. Cultures were grown overnight at 28° C. in LB media. […] Inhibition of quorum sensing was qualitatively measured by observing the lack of production of violacein in areas where compounds were applied. […] Activation of quorum sensing was qualitatively measured by observing the production of violacein in areas where compounds were applied. […]

TraR = biological target: T3, TraR (Agrobacterium tumefaciens, UniProt P33905); assay: Agrobacterium tumefaciens KYC55 β-Galactosidase induction plate assay; settings: 1 μl of 0.1 mg/ml spotted
T3 construct: expressed in transfected cells; host or cells: Agrobacterium tumefaciens KYC55
Description: as §1
Agrobacterium tumefaciens KYC55 is a mutant strain that is unable to produce AHLs. Exogenous AHLs must be added to induce the LuxR-type transcriptional regulator which is designated TraR in this strain. This strain contains a plasmid that encodes β-Galactosidase under the transcriptional control of TraR. Activation of TraR is indicated by the production of β-Galactosidase. Cultures were grown overnight at 28° C. in AMA broth. Induction assays were performed by applying compounds to a lawn of bacteria on AMA agar plates containing […] of X-Gal per ml. […] Activation of quorum sensing was qualitatively measured by observing the production the blue pigment that results from β-Galactosidase cleavage of the X-gal substrate in areas where compounds were applied. […]

T1 sequence (P25084 whole entry): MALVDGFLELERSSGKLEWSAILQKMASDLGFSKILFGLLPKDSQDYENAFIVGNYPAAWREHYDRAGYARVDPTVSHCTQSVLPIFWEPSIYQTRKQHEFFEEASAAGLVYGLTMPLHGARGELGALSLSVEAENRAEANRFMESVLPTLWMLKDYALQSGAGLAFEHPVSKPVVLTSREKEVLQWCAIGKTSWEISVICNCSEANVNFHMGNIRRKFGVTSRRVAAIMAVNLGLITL
T2 sequence (D3W065 1-265): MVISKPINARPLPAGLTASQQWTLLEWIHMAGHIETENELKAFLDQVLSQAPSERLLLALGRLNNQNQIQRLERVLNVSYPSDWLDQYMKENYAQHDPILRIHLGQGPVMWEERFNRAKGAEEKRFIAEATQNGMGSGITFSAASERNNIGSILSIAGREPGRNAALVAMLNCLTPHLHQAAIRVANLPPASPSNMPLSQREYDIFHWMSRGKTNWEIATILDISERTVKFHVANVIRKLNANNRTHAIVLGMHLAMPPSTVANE
T3 sequence (P33905 whole entry): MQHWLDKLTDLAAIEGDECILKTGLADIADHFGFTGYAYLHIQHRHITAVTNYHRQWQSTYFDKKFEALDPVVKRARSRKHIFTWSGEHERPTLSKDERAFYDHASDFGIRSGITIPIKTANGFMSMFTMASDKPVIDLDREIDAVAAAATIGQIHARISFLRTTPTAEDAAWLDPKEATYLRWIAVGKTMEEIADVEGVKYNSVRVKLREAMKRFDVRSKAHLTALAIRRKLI

Structure (SMILES): NC(=O)SCC(=O)Nc1cccc(I)c1 [Compound 17]
- % Activity of AHL Standard, 3 oxo C10HSL [1]: 67.20%
- % Activity of AHL Standard, 3 oxo C12HSL [1]: 81.20%

Structure (SMILES): CCCC(=O)CC(=O)N[C@H]1CCOC1=O [Compound 3oxoC6HSL, N-(3-oxohexanoyl)-L-homoserine lactone]
- Activation of quorum sensing (violacein production), control (CviR): activated gene expression
- Induction of β-Galactosidase (blue zone), control (TraR): activated gene expression

Structure (SMILES): COC(=O)c1ccccc1NC(=O)CSC(N)=O [Compound 1]
- % Activity of AHL Standard, 3 oxo C10HSL [1]: 35.86%
- % Activity of AHL Standard, 3 oxo C12HSL [1]: 33.64%

Structure (SMILES): NC(=O)SCC(=O)Nc1ccccc1Br [Compound 11]
- % Activity of AHL Standard, 3 oxo C10HSL [1]: 36.60%
- % Activity of AHL Standard, 3 oxo C12HSL [1]: 56.70%

Structure (SMILES): Cc1ccc(NC(=O)CSC(N)=O)c(C)c1 [Compound 18]
- % Activity of AHL Standard, 3 oxo C10HSL [1]: 40.00%
- % Activity of AHL Standard, 3 oxo C12HSL [1]: 82.30%

Structure (SMILES): NC(=O)SCC(=O)Nc1ccc(Br)cc1 [Compound 15]
- % Activity of AHL Standard, 3 oxo C10HSL [1]: 39.00%
- % Activity of AHL Standard, 3 oxo C12HSL [1]: 70.10%

Structure (SMILES): NC(=O)SCC(=O)Nc1cccc(Cl)c1 [Compound 21]
- % Activity of AHL Standard, 3 oxo C10HSL [1]: 43.30%
- % Activity of AHL Standard, 3 oxo C12HSL [1]: 88.50%

Structure (SMILES): COc1cccc(NC(=O)CSC(N)=O)c1 [Compound 9]
- % Activity of AHL Standard, 3 oxo C10HSL [1]: 35.50%
- % Activity of AHL Standard, 3 oxo C12HSL [1]: 53.30%

Structure (SMILES): NC(=O)SCC(=O)Nc1cccc(F)c1 [Compound 13]
- % Activity of AHL Standard, 3 oxo C10HSL [1]: 33.60%
- % Activity of AHL Standard, 3 oxo C12HSL [1]: 67.60%

Structure (SMILES): NC(=O)SCC(=O)Nc1ccc(Cl)c(Cl)c1 [Compound 20]
- % Activity of AHL Standard, 3 oxo C10HSL [1]: 40.50%
- % Activity of AHL Standard, 3 oxo C12HSL [1]: 87.70%

Structure (SMILES): Cc1ccc(NC(=O)CSC(N)=O)cc1Cl [Compound 3]
- % Activity of AHL Standard, 3 oxo C10HSL [1]: 32.27%
- % Activity of AHL Standard, 3 oxo C12HSL [1]: 41.63%

Structure (SMILES): COc1ccccc1NC(=O)CSC(N)=O [Compound 14]
- % Activity of AHL Standard, 3 oxo C10HSL [1]: 46.80%
- % Activity of AHL Standard, 3 oxo C12HSL [1]: 68.60%

Structure (SMILES): NC(=O)SCC(=O)Nc1ccccc1Cl [Compound 8]
- % Activity of AHL Standard, 3 oxo C10HSL [1]: 32.72%
- % Activity of AHL Standard, 3 oxo C12HSL [1]: 51.98%

Structure (SMILES): CC(=O)c1ccc(NC(=O)CSC(N)=O)cc1 [Compound 12]
- % Activity of AHL Standard, 3 oxo C10HSL [1]: 59.20%
- % Activity of AHL Standard, 3 oxo C12HSL [1]: 64.90%

Structure (SMILES): Cc1cccc(NC(=O)CSC(N)=O)c1C [Compound 4]
- % Activity of AHL Standard, 3 oxo C10HSL [1]: 37.50%
- % Activity of AHL Standard, 3 oxo C12HSL [1]: 43.00%

Structure (SMILES): Cc1ccc(Cl)cc1NC(=O)CSC(N)=O [Compound 5]
- % Activity of AHL Standard, 3 oxo C10HSL [1]: 56.73%
- % Activity of AHL Standard, 3 oxo C12HSL [1]: 47.85%
